Measured values as given in ChEMBL document CHEMBL6109107, “Exploring the broad-spectrum activity of carbohydrate-based Iberin analogues: From anticancer effect to antioxidant properties” (Eur J Med Chem, 2025).
Activity calls are given as the source filed them. The rule behind the calls is not given here.

Key:
[1] = Cytotoxicity against human HaCaT cells assessed as reduction in cell viability incubated for 72 hrs by resazurin dye based assay; type: toxicity
A549 [2] = test: Cytotoxicity against human A549 cells assessed as reduction in cell viability incubated for 72 hrs by resazurin dye based assay; type: functional; conditions: A549, 72 h
MeWo = test: Cytotoxicity against human MeWo cells assessed as reduction in cell viability incubated for 72 hrs by resazurin dye based assay; type: functional
T-24 = test: Cytotoxicity against human T24 cells assessed as reduction in cell viability incubated for 72 hrs by resazurin dye based assay; type: functional; conditions: T-24, 72 h
[3] = Selectivity index, ratio of IC50 for human HaCaT cells to IC50 for human A549 cells; type: toxicity; conditions: HaCaT cells versus A549 cells, read-out: Ratio IC50
[4] = Selectivity index, ratio of IC50 for human HaCaT cells to IC50 for human MeWo cells; type: toxicity; conditions: HaCaT cells versus MeWo cells, read-out: Ratio IC50
[5] = Selectivity index, ratio of IC50 for human HaCaT cells to IC50 for human T24 cells; type: toxicity; conditions: HaCaT cells versus T24 cells, read-out: Ratio IC50
[6] = Cytotoxicity against human Arec32 cells assessed as cell viability by MTT assay; type: toxicity, cell-based
Arec32 [7] = test: Induction of Nrf2 activity in human Arec32 cells assessed as drug concentration required to double luciferase expression incubated for 24 hrs by luminescence based plate reader analysis; type: cell-based; conditions: filed as activator
Arec32 [8] = test: Induction of Nrf2 activity in human Arec32 cells assessed as increase in luciferase expression at >30 uM incubated for 24 hrs by luminescence based plate reader analysis; type: cell-based
A549 [9] = test: Cytotoxicity against human A549 cells assessed as inhibition of cell growth incubated for 72 hrs by MTT assay; type: functional, cell-based; conditions: A549, 72 h

| Compound | IC50 at 72 h [1] | IC50 (A549 [2]) | IC50 (MeWo) | IC50 (T-24) | selectivity ratio [3] | selectivity ratio [4] | selectivity ratio [5] | EC50 [6] | CD (Arec32 [7]) | Activity (Arec32 [8]) | IC50 (A549 [9]) |
| --- | --- | --- | --- | --- | --- | --- | --- | --- | --- | --- | --- |
| CC(=O)OC[C@H]1O[C@@H](N=C=S)[C@H](OC(C)=O)[C@@H]([S@@+]([O-])c2ccccc2)[C@@H]1OC(C)=O | 59.1 µM | 74.9 µM | 67.5 µM | 56.7 µM | 0.8 | 0.9 | 1.1 | > 30 µM | 1.55 µM | – | – |
| CS(=O)(=O)CCCN=C=S | 35.9 µM | 25.2 µM | 29.5 µM | 10.7 µM | 1.9 | 1.3 | 3.3 | > 30 µM | 3.22 µM | – | – |
| CS[C@@H]1[C@@H](OC(C)=O)[C@H](N=C=S)O[C@H](COC(C)=O)[C@H]1OC(C)=O | 45.3 µM | 47.9 µM | 47 µM | 30.9 µM | 0.9 | 1 | 1.5 | > 30 µM | – | inactive | – |
| CSCCCN=C=S | 43.9 µM | 31.1 µM | 31.6 µM | 14.4 µM | 1.7 | 1.5 | 3.2 | > 30 µM | 2.94 µM | – | 48 µM |
| CC(=O)OC[C@H]1O[C@@H](N=C=S)[C@H](OC(C)=O)[C@@H](S(C)(=O)=O)[C@@H]1OC(C)=O | 40.1 µM | 62.8 µM | 39 µM | 19.9 µM | 0.6 | 1.2 | 2 | > 30 µM | 6.21 µM | – | – |
| CCS(=O)(=O)[C@@H]1[C@@H](OC(C)=O)[C@H](N=C=S)O[C@H](COC(C)=O)[C@H]1OC(C)=O | 35.2 µM | 54.7 µM | 33 µM | 18 µM | 0.6 | 1.1 | 2 | > 30 µM | 10.4 µM | – | – |
| CC(C)(C)c1cc(O)ccc1O [E319] | – | – | – | – | – | – | – | > 30 µM | 1.68 µM | – | – |
| CCS[C@@H]1[C@@H](OC(C)=O)[C@H](N=C=S)O[C@H](COC(C)=O)[C@H]1OC(C)=O | 46.3 µM | 48.8 µM | 50 µM | 31.5 µM | 0.9 | 0.9 | 1.5 | > 30 µM | – | inactive | – |
| CC[S+]([O-])[C@@H]1[C@@H](OC(C)=O)[C@H](N=C=S)O[C@H](COC(C)=O)[C@H]1OC(C)=O (mixture of isomers) | 141 µM | 155 µM | 118 µM | 113 µM | 0.9 | 1.1 | 1.1 | > 30 µM | 6.32 µM | – | – |
| CC(=O)OC[C@H]1O[C@@H](N=C=S)[C@H](OC(C)=O)[C@@H]([S@+]([O-])c2ccccc2)[C@@H]1OC(C)=O | 61.2 µM | 58.9 µM | 57.4 µM | 48.9 µM | 1 | 1.1 | 1.3 | > 30 µM | 2.09 µM | – | – |
| Nc1ccn([C@@H]2O[C@H](CO)[C@@H](O)C2(F)F)c(=O)n1 [GEMCITABINE] | 7.1 µM | 3 µM | 5.2 µM | 2.1 µM | 2.6 | 1.6 | 4.2 | – | – | – | – |
| CC(=O)OC[C@H]1O[C@@H](N=C=S)[C@H](OC(C)=O)[C@@H]([S+](C)[O-])[C@@H]1OC(C)=O (mixture of isomers) | 180 µM | 183 µM | 178 µM | 159 µM | 1 | 1 | 1.1 | > 30 µM | 5.75 µM | – | – |
| CC(=O)OC[C@H]1O[C@@H](N=C=S)[C@H](OC(C)=O)[C@@H](Sc2ccccc2)[C@@H]1OC(C)=O | 23.2 µM | 24.9 µM | 29.1 µM | 19.4 µM | 1 | 0.9 | 1.2 | > 30 µM | – | inactive | – |
| CC(=O)OC[C@H]1O[C@@H](N=C=S)[C@H](OC(C)=O)[C@@H](OC(C)=O)[C@@H]1OC(C)=O | 71.4 µM | 64.6 µM | 58.1 µM | 48.7 µM | 1.1 | 1.2 | 1.5 | > 30 µM | – | inactive | – |
| CC(=O)OC[C@H]1O[C@@H](N=C=S)[C@H](OC(C)=O)[C@@H](S(=O)(=O)c2ccccc2)[C@@H]1OC(C)=O | 27.5 µM | 40.3 µM | 22.9 µM | 16.8 µM | 0.7 | 1.2 | 1.6 | > 30 µM | 2.09 µM | – | – |
| C[S+]([O-])CCCN=C=S (racemic) | 33 µM | 20.7 µM | 32.8 µM | 12.2 µM | 1.8 | 1 | 2.9 | > 30 µM | 3.12 µM | – | 30.2 µM |
